{"source": "patent US20210163404A1", "about": "“NOVEL UREA COMPOUNDS AND BIOISOSTERES THEREOF AND THEIR USE FOR TREATING INFLAMMATION AND INFLAMMATION-RELATED PATHOLOGIES” (UNIVERSITÉ LAVAL, priority 2017, published 2021)", "key": {"[1]": {"system": "IL-6", "assay": "IL-6 expression in HaCaT cells stimulated with IL-17A and TNFα (ELISA)", "assay_type": "cell-based, human", "conditions": "10 μM solutions; HaCaT stimulated with IL-17A and TNFα; mean of five experiments in duplicate", "from_the_text": "The effect of compounds 3a-b, 4a-e, 5a-e and 6a-e on the expression of IL-6 was subsequently assessed using the HaCaT spontaneously transformed aneuploid immortal keratinocyte cell line, stimulated by the addition of IL-17A and TNFα in the culture medium (Table 1). Curcumin and ibuprofen were used as known IL-6 expression inhibitors. DMSO was used for solubilizing the drugs. […] Indeed, the inhibitory effect of these molecules was at least equivalent to that of curcumin [27] and ibuprofen, both recognized as anti-inflammatory drugs. The inhibitory effect of the substituted phenyl cycloalkylureas in accordance with an embodiment of the present disclosure on proinflammatory cytokines was also found at the mRNA level. Indeed, the mRNAs of the cytokines IL-6 and TNF-α as well as the mRNA of the chemokine IL-8 were lowered in TNF-α/IL-17A-stimulated HaCaT cells. Similar results were obtained in THP-1 cells stimulated with LPS where treatments with CHEU and 4e diminished the mRNA levels of the cytokines IL-1B, IL-6 and TNF-α in addition to the mRNA levels of the chemokine IL-8. It is surmised that the anti-inflammatory mechanism of action of the compounds of the present disclosure is likely mediated, at least in part, by modulating the phosphorylation state of the MAP kinase p38. […] Addition of a compound in accordance with an embodiment of the present disclosure, prior to stimulation with the aforementioned cytokines, decreases the level of p-p38 at 30-60 minutes post-stimulation. This diminution in p-p38 levels destabilizes the mRNAs of pro-inflammatory cytokines, non-limiting examples of which include TNF-α and IL-6. Moreover, it is surmised that the effect of the compounds of the present disclosure on p-p38 is potentially mediated by the activation of the phosphatase named DUSP1.\nHaCaT cells (1×10^5) were suspended in DMEM culture media (500 μL) and incubated for 24 h in 24-well microtiter plates at 37° C. in a moisture-saturated atmosphere containing 5% CO2. Compounds were solubilized in DMSO and diluted in fresh DMEM. The compound (500 μL) was then added to the cell medium to obtain a final concentration of […] and the cells incubated over a period of 1 hour. In the meantime, IL-17α (200 ng/mL) and TNFα (20 ng/mL) (PeproTech, Rocky Hill, N.J.) were added to the drug solution in DMEM. Following the initial incubation of the cells, the culture medium was aspirated from each well and the IL-17α+ TNFα+ compound solution was added to each well for incubation (6 hours). The culture media was then removed and transferred to a clean tube (1.5 mL) at −80° C. until the ELISA test was performed. The presence of IL-6 in the cell media was determined using an IL-6 human Duoset ELISA kit (Fisher Scientific, Ottawa, On.) according to the manufacturer's instructions. Standards and samples were prepared and assessed in duplicate. Two separate replicates were performed for each sample. The absorbance was measured at 450 nm and 540 nm using a TECAN infinite M1000 plate reader."}, "[2]": {"system": "HaCaT keratinocyte cell line", "assay": "Antiproliferative activity (NCI procedure, sulforhodamine B), HaCaT", "assay_type": "cell-based, human", "conditions": "Homo sapiens, HaCaT, 48 h", "method_in_brief": "(§1)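 Cells seeded in DMEM, grown 24 h at 37 °C, then exposed 48 h to serial dilutions from 100 μM to 781 nM (DMSO <0.5%). TCA fixation, sulforhodamine B staining, absorbance at 530-568 nm; growth inhibition relative to plates fixed on treatment day. At least two experiments in triplicate.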"}, "[3]": {"system": "A549 adenocarcinoma alveolar epithelial cancer cells", "assay": "Antiproliferative activity (NCI procedure, sulforhodamine B), A549", "assay_type": "cell-based, human", "conditions": "Homo sapiens, A549, 48 h", "method_in_brief": "as §1"}, "[4]": {"system": "HT-29 colon adenocarcinoma cells", "assay": "Antiproliferative activity (NCI procedure, sulforhodamine B), HT-29", "assay_type": "cell-based, human", "conditions": "Homo sapiens, HT-29, 48 h", "method_in_brief": "as §1"}, "[5]": {"system": "HaCaT cells", "assay": "Cell cycle analysis by flow cytometry", "assay_type": "cell-based, human", "description": "The effect of compounds 3a-b, 4e, 5b-c, 6a and 6e on cell cycle progression was subsequently assessed using a flow cytometer in accordance with established experimental protocols to evaluate any potential drug toxicity at specific phases of the cell cycle (Table 3).\nHaCaT cells (2.5×10^5) were incubated with compounds 3a-b, 4e, 5b-c, 6a and 6e and curcumin (10 μM) over a period of 24 h. The cells were subsequently trypsinized, washed with PBS, resuspended in PBS (250 μL), fixed by the addition of ice-cold EtOH (750 μL) under agitation and stored at −20° C. until analysis. Prior to FACS analysis, cells were washed with PBS and resuspended in PBS (500 μL) containing 4′,6′-diamidino-2-phenylindole (DAPI) (2 μg/mL). The cell cycle was analyzed using an LSR II flow cytometer (BD Biosciences, Franklin Lakes, N.J.)."}, "[6]": {"system": "HDFn neonatal dermal fibroblast cell line", "assay": "Antiproliferative activity (NCI procedure, sulforhodamine B), HDFn", "assay_type": "cell-based, human", "conditions": "Homo sapiens, Fibroblast, 48 h", "method_in_brief": "as §1"}, "[7]": {"system": "mRNAs of IL-1B, IL-6, TNF-α and IL-8", "assay": "mRNA levels of cytokines in THP-1 cells stimulated with LPS", "assay_type": "cell-based", "conditions": "in words", "from_the_text": "The effect of compounds 3a-b, 4a-e, 5a-e and 6a-e on the expression of IL-6 was subsequently assessed using the HaCaT spontaneously transformed aneuploid immortal keratinocyte cell line, stimulated by the addition of IL-17A and TNFα in the culture medium (Table 1). Curcumin and ibuprofen were used as known IL-6 expression inhibitors. DMSO was used for solubilizing the drugs. […] Indeed, the inhibitory effect of these molecules was at least equivalent to that of curcumin [27] and ibuprofen, both recognized as anti-inflammatory drugs. The inhibitory effect of the substituted phenyl cycloalkylureas in accordance with an embodiment of the present disclosure on proinflammatory cytokines was also found at the mRNA level. Indeed, the mRNAs of the cytokines IL-6 and TNF-α as well as the mRNA of the chemokine IL-8 were lowered in TNF-α/IL-17A-stimulated HaCaT cells. Similar results were obtained in THP-1 cells stimulated with LPS where treatments with CHEU and 4e diminished the mRNA levels of the cytokines IL-1B, IL-6 and TNF-α in addition to the mRNA levels of the chemokine IL-8. It is surmised that the anti-inflammatory mechanism of action of the compounds of the present disclosure is likely mediated, at least in part, by modulating the phosphorylation state of the MAP kinase p38. […]"}, "[8]": {"system": "IL-6", "assay": "IL-6 expression in HaCaT cells stimulated with IL-17A and TNFα (ELISA)", "assay_type": "cell-based", "conditions": "Homo sapiens, read-out: Reduction IL-6 (%)"}, "[9]": {"conditions": "Table 6, unit inferred, tested 781 nM to 100 μM"}}, "note": "Read-outs that look alike come from different tables or passages of the source."}
{"smiles": "O=C(Nc1ccc(C2CCCCC2)cc1)NC1CC1", "note": "[Compound 54, 1-(4-Cyclohexylphenyl)-3-cyclopropylurea]", "values": [{"measurement": "Expression of IL-6, HaCaT", "setting": "[1]", "value": "29.2 ± 3.5", "unit": "pg/mL"}, {"measurement": "melting point", "value": "173 to 176", "unit": "°C"}, {"measurement": "GI50", "setting": "[2]; Table 2", "value": 74, "unit": "µM"}, {"measurement": "IC50", "setting": "[2]; [9]", "value": 74, "unit": "µM"}, {"measurement": "GI50", "setting": "[3]; Table 2", "value": 48, "unit": "µM"}, {"measurement": "IC50", "setting": "[3]; [9]", "value": 48, "unit": "µM"}, {"measurement": "GI50", "setting": "[4]; Table 2", "value": 54, "unit": "µM"}, {"measurement": "IC50", "setting": "[4]; [9]", "value": 54, "unit": "µM"}, {"measurement": "Cell cycle progression G0-G1", "setting": "[5]; 10 μM, 24 h", "value": 47.7}, {"measurement": "Cell cycle progression G2-M", "setting": "[5]; 10 μM, 24 h", "value": 28.1}, {"measurement": "Cell cycle progression S", "setting": "[5]; 10 μM, 24 h", "value": 24.2}, {"measurement": "effect on cell cycle progression", "setting": "[5]; in words", "value": "did not affect the cell cycle progression"}, {"measurement": "GI50", "setting": "[6]; Table 2", "value": 40, "unit": "µM"}, {"measurement": "IC50", "setting": "[6]; [9]", "value": 40, "unit": "µM"}, {"measurement": "mRNA levels of the cytokines IL-1B, IL-6 and TNF-α and of the chemokine IL-8", "setting": "[7]", "value": "diminished"}]}
{"smiles": "C[C@@H]1C[C@H]2[C@@H]3CCC4=CC(=O)C=C[C@]4(C)[C@@]3(F)[C@@H](O)C[C@]2(C)[C@@]1(O)C(=O)CO", "note": "[Dexamethasone]", "values": [{"measurement": "inhibition at 1 µM", "setting": "[8]; Table 6, HaCaT stimulated with IL-17A and TNFα", "value": 45.3, "unit": "%"}, {"measurement": "inhibition at 1 µM", "setting": "[8]; Table 8, HaCaT stimulated with IL-17A and TNFα", "value": 54.5, "unit": "%"}]}
